Laboratory results as given in PubChem BioAssay AID330 (DTP/NCI, 2004).
Values joined by “and” are separate entries in the source; they are usually repeats but may differ in a detail not shown here. Identical values can stand only once. Inconclusive results and toxic doses are left out.

System: P388 leukemia ip, CD2F1 mice, survival T/C
Experiment: NCI In Vivo Anticancer Drug Screen. Data for tumor model P388 Leukemia (intraperitoneal) in CD2F1 (CDF1) mice
Details: endpoint: median survival time, higher = longer survival
Procedure, shortened: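 Mice carrying the transplanted tumor received test compound or vehicle. Survival was recorded in each group, and the value is the treated-group measurement divided by that of the vehicle-treated control group.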

[1] = dose: 50.0 mg/kg/injection, schedule: Q01DX005 (ip), vehicle: Klucel (hydroxypropylcellulose) (HPC)
[2] = dose: 100.0 mg/kg/injection, schedule: Q01DX005 (ip), vehicle: Klucel (hydroxypropylcellulose) (HPC)
[3] = dose: 200.0 mg/kg/injection, schedule: Q01DX005 (ip), vehicle: Klucel (hydroxypropylcellulose) (HPC)
[4] = dose: 50.0 mg/kg/injection, schedule: Q01DX005 (ip), vehicle: saline with Tween-80
[5] = dose: 100.0 mg/kg/injection, schedule: Q01DX005 (ip), vehicle: saline with Tween-80
[6] = dose: 200.0 mg/kg/injection, schedule: Q01DX005 (ip), vehicle: saline with Tween-80
[7] = dose: 60.0 mg/kg/injection, schedule: Q01DX005 (ip), vehicle: saline with Tween-80
[8] = dose: 120.0 mg/kg/injection, schedule: Q01DX005 (ip), vehicle: saline with Tween-80
[9] = dose: 240.0 mg/kg/injection, schedule: Q01DX005 (ip), vehicle: saline with Tween-80
[10] = dose: 100.0 mg/kg/injection, schedule: Q01DX009 (ip), vehicle: saline with Tween-80
[11] = dose: 200.0 mg/kg/injection, schedule: Q01DX009 (ip), vehicle: saline with Tween-80
[12] = dose: 50.0 mg/kg/injection, schedule: Q01DX009 (ip), vehicle: saline with Tween-80
[13] = dose: 50.0 mg/kg/injection, schedule: Q01DX009 (ip), vehicle: saline
[14] = dose: 100.0 mg/kg/injection, schedule: Q01DX009 (ip), vehicle: saline
[15] = dose: 200.0 mg/kg/injection, schedule: Q01DX009 (ip), vehicle: saline

## CCOc1cccc(/C=C2\NC(=S)N(c3ccccc3)C2=O)c1O
[1]
  T/C: 101 % of control
[2]
  T/C: 93 % of control
[3]
  T/C: 99 % of control

## COc1ccc2nc(-c3ccccc3)cc(C(=O)/C=C/c3ccc(N(C)C)cc3)c2c1
[4]
  T/C: 89 % of control
[5]
  T/C: 86 % of control
[6]
  T/C: 89 % of control

## CC(=O)CC1C(=O)OC(C)(C)OC1=O
[4]
  T/C: 112 % of control
[5]
  T/C: 106 % of control
[6]
  T/C: 103 % of control

## Cn1c(=O)c2nc3n(c2n(C)c1=O)CCC(C)(c1ccccc1)O3 (centres undefined)
[7]
  T/C: 96 % of control
[8]
  T/C: 91 % of control
[9]
  T/C: 91 % of control

## CC(=O)N(c1ccccc1)C1CCC2(C)C(=CCC3C2CCC2(C)C(C(C)CCCC(C)C)CCC32)C1 (centres undefined)
dose: 100.0 mg/kg/injection, schedule: Q04DX003 (sc), vehicle: steriod suspending solution
  T/C: 100 % of control
dose: 200.0 mg/kg/injection, schedule: Q04DX003 (sc), vehicle: steriod suspending solution
  T/C: 100 % of control
dose: 400.0 mg/kg/injection, schedule: Q04DX003 (sc), vehicle: steriod suspending solution
  T/C: 104 % of control

## O=C(NC(=O)c1cc2cc(Cl)cc(Cl)c2oc1=O)Oc1ccccc1
[4]
  T/C: 89 % of control
[5]
  T/C: 91 % of control
[6]
  T/C: 98 % of control

## Cn1c(=O)cc2n(C)c3ccccc3n2c1=O
[7]
  T/C: 96 % of control
[8]
  T/C: 100 % of control
[9]
  T/C: 97 % of control

## CCCCCN(CCCCC)CC(C)(O)CNc1cc(OC)cc2cccnc12 (centres undefined)
dose: 50.0 mg/kg/injection, schedule: Q01DX005 (ip), vehicle: saline
  T/C: 95 % of control
dose: 100.0 mg/kg/injection, schedule: Q01DX005 (ip), vehicle: saline
  T/C: 87 % of control

## O=C1CCSc2ccccc21
[10]
  T/C: 95 % of control
[11]
  T/C: 109 % of control

## CC#CC(=O)OC
[12]
  T/C: 94 % of control
[10]
  T/C: 101 % of control
[11]
  T/C: 98 % of control
dose: 400.0 mg/kg/injection, schedule: Q01DX009 (ip), vehicle: saline with Tween-80
  T/C: 98 % of control

## O=c1[nH]c(=O)n([C@H]2CCCO2)cc1F
dose: 44.0 mg/kg/injection, schedule: Q01DX009 (ip), vehicle: Klucel (hydroxypropylcellulose) (HPC)
  T/C: 111 % of control
[12]
  T/C: 104 % of control
dose: 59.0 mg/kg/injection, schedule: Q01DX009 (ip), vehicle: Klucel (hydroxypropylcellulose) (HPC)
  T/C: 114 % of control
dose: 90.0 mg/kg/injection, schedule: Q01DX009 (ip), vehicle: Klucel (hydroxypropylcellulose) (HPC)
  T/C: 124 % of control
dose: 142.0 mg/kg/injection, schedule: Q04DX003 (ip), vehicle: Klucel (hydroxypropylcellulose) (HPC)
  T/C: 109 % of control
dose: 189.0 mg/kg/injection, schedule: Q04DX003 (ip), vehicle: Klucel (hydroxypropylcellulose) (HPC)
  T/C: 115 % of control
[11]
  T/C: 93 % of control
dose: 201.0 mg/kg/injection, schedule: Q01DX009 (ip), vehicle: Klucel (hydroxypropylcellulose) (HPC)
  T/C: 95 % of control
dose: 316.0 mg/kg/injection, schedule: Q01DX001 (ip), vehicle: Klucel (hydroxypropylcellulose) (HPC)
  T/C: 107 % of control
dose: 421.0 mg/kg/injection, schedule: Q01DX001 (ip), vehicle: Klucel (hydroxypropylcellulose) (HPC)
  T/C: 115 % of control
dose: 641.0 mg/kg/injection, schedule: Q01DX001 (ip), vehicle: Klucel (hydroxypropylcellulose) (HPC)
  T/C: 120 % of control
dose: 645.0 mg/kg/injection, schedule: Q04DX003 (ip), vehicle: Klucel (hydroxypropylcellulose) (HPC)
  T/C: 120 % of control

## COc1cc2c(c(OC)c1OC)-c1ccc(=O)c(OC)cc1C(N(C)C(C)=O)CC2 (centres undefined)
dose: 1.25 mg/kg/injection, schedule: Q01DX009 (ip), vehicle: Klucel (hydroxypropylcellulose) (HPC)
  T/C: 100 % of control
dose: 2.5 mg/kg/injection, schedule: Q01DX009 (ip), vehicle: Klucel (hydroxypropylcellulose) (HPC)
  T/C: 100 % of control
dose: 5.0 mg/kg/injection, schedule: Q01DX009 (ip), vehicle: Klucel (hydroxypropylcellulose) (HPC)
  T/C: 113 % of control
dose: 10.0 mg/kg/injection, schedule: Q01DX009 (ip), vehicle: Klucel (hydroxypropylcellulose) (HPC)
  T/C: 103 % of control
dose: 20.0 mg/kg/injection, schedule: Q01DX009 (ip), vehicle: Klucel (hydroxypropylcellulose) (HPC)
  T/C: 106 % of control

## NC(=O)c1[nH]ncc1C1OCCC1O (centres undefined)
dose: 100.0 mg/kg/injection, schedule: Q01DX001 (ip), vehicle: saline with Tween-80
  T/C: 100 % of control
dose: 200.0 mg/kg/injection, schedule: Q01DX001 (ip), vehicle: saline with Tween-80
  T/C: 100 % of control
dose: 400.0 mg/kg/injection, schedule: Q01DX001 (ip), vehicle: saline with Tween-80
  T/C: 100 % of control

## COc1cc2c(cc1C(C)c1ccc(Br)cc1)OCO2 (centres undefined)
[4]
  T/C: 96 % of control
[5]
  T/C: 103 % of control
[6]
  T/C: 100 % of control

## CSc1nc2[nH]cnc(=S)c2[nH]1
dose: 6.25 mg/kg/injection, schedule: Q04DX003 (ip), vehicle: saline with Tween-80
  T/C: 90 % of control
dose: 12.5 mg/kg/injection, schedule: Q04DX003 (ip), vehicle: saline with Tween-80
  T/C: 90 % of control
dose: 25.0 mg/kg/injection, schedule: Q04DX003 (ip), vehicle: saline with Tween-80
  T/C: 109 % of control

## O=C1CC(=O)OCCOCCOCCO1
[13]
  T/C: 98 % of control
[14]
  T/C: 117 % of control
[15]
  T/C: 101 % of control

## SCc1ccccc1.[Cu+2]
dose: 6.25 mg/kg/injection, schedule: Q01DX009 (ip), vehicle: saline with Tween-80
  T/C: 99 % of control
dose: 12.5 mg/kg/injection, schedule: Q01DX009 (ip), vehicle: saline with Tween-80
  T/C: 91 % of control
dose: 25.0 mg/kg/injection, schedule: Q01DX009 (ip), vehicle: saline with Tween-80
  T/C: 97 % of control

## C[C@@H]1C[C@@H](O)[C@]2(O)O[C@@H]3C[C@@]4(C=O)[C@@H](CC=C5[C@@H]4CC[C@]4(C)C(C6=CC(=O)OC6)CC[C@]54O)C[C@H]3O[C@@H]2O1 (some centres undefined)
dose: 1.75 mg/kg/injection, schedule: Q01DX005 (ip), vehicle: saline with Tween-80
  T/C: 94 % of control
dose: 3.5 mg/kg/injection, schedule: Q01DX005 (ip), vehicle: saline with Tween-80
  T/C: 100 % of control
dose: 7.0 mg/kg/injection, schedule: Q01DX005 (ip), vehicle: saline with Tween-80
  T/C: 98 % of control

## CC(Br)CN(CC(C)Br)c1ccc(-c2ccccc2)cc1 (centres undefined)
dose: 12.5 mg/kg/injection, schedule: Q01DX009 (ip), vehicle: Klucel (hydroxypropylcellulose) (HPC)
  T/C: 154 % of control
dose: 25.0 mg/kg/injection, schedule: Q01DX009 (ip), vehicle: Klucel (hydroxypropylcellulose) (HPC)
  T/C: 164 % of control
dose: 50.0 mg/kg/injection, schedule: Q01DX009 (ip), vehicle: Klucel (hydroxypropylcellulose) (HPC)
  T/C: 176 % of control and 181 % of control
dose: 100.0 mg/kg/injection, schedule: Q01DX009 (ip), vehicle: Klucel (hydroxypropylcellulose) (HPC)
  T/C: 184 % of control

## CCCCCCCCCCCCCCCCCC[N+]1(CC)CCOCC1
dose: 0.78 mg/kg/injection, schedule: Q01DX009 (ip), vehicle: saline
  T/C: 87 % of control and 90 % of control
dose: 1.56 mg/kg/injection, schedule: Q01DX009 (ip), vehicle: saline
  T/C: 106 % of control and 87 % of control and 88 % of control
dose: 3.12 mg/kg/injection, schedule: Q01DX009 (ip), vehicle: saline
  T/C: 111 % of control and 87 % of control and 88 % of control
dose: 25.0 mg/kg/injection, schedule: Q01DX009 (ip), vehicle: saline
  T/C: 86 % of control
[13]
  T/C: 96 % of control
[14]
  T/C: 88 % of control
[15]
  T/C: 100 % of control

## CCOc1nc(N)nc(C)c1N=Nc1cccc(Cl)c1
dose: 60.0 mg/kg/injection, schedule: Q01DX005 (ip), vehicle: Klucel + Tween-80
  T/C: 101 % of control
dose: 120.0 mg/kg/injection, schedule: Q01DX005 (ip), vehicle: Klucel + Tween-80
  T/C: 107 % of control
dose: 240.0 mg/kg/injection, schedule: Q01DX005 (ip), vehicle: Klucel + Tween-80
  T/C: 100 % of control

## Cc1[nH]nc2oc(=O)c3ccccc3c12
[1]
  T/C: 105 % of control
[2]
  T/C: 102 % of control
[3]
  T/C: 102 % of control

## Nn1c(-c2nn[nH]n2)nnc1-c1nn[nH]n1 (tested in a mixture with another compound)
dose: 50.0 mg/kg/injection, schedule: Q01DX001 (ip), vehicle: Klucel (hydroxypropylcellulose) (HPC)
  T/C: 109 % of control
dose: 100.0 mg/kg/injection, schedule: Q01DX001 (ip), vehicle: Klucel (hydroxypropylcellulose) (HPC)
  T/C: 107 % of control
dose: 200.0 mg/kg/injection, schedule: Q01DX001 (ip), vehicle: Klucel (hydroxypropylcellulose) (HPC)
  T/C: 103 % of control
